Assay results taken from ChEMBL document CHEMBL3826960, “Robust design of some selective matrix metalloproteinase-2 inhibitors over matrix metalloproteinase-9 through in silico/fragment-based lead identification and de novo lead modification: Syntheses and biological assays” (Bioorg Med Chem, 2016).
pIC50: −log10 of the molar value.

How the values were obtained:
[1] = molecular target: Matrix metalloproteinase-9 (Homo sapiens, UniProt P14780)
Description: Inhibition of human recombinant MMP9 by colorimetric analysis

Interstitial collagenase = molecular target: T1, Interstitial collagenase (Homo sapiens, UniProt P03956)
T1 sequence (P03956 whole entry): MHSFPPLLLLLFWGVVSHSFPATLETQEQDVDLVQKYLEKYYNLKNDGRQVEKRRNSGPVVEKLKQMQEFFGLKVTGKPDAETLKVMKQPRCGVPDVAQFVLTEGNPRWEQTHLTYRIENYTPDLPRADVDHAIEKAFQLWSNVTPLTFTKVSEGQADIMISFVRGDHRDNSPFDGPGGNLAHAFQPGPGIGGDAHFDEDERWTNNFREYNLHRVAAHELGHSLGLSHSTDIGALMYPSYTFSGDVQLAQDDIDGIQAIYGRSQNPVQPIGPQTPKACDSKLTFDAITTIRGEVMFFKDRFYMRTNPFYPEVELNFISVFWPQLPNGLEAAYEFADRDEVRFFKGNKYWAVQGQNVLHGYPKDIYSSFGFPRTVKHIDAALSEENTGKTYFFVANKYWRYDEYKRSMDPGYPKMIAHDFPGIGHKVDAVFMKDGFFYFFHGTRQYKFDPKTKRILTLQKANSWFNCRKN
Description: Inhibition of human recombinant MMP1 by colorimetric analysis

[2] = molecular target: Macrophage metalloelastase (Homo sapiens, UniProt P39900)
Sequence of Macrophage metalloelastase (P39900 whole entry): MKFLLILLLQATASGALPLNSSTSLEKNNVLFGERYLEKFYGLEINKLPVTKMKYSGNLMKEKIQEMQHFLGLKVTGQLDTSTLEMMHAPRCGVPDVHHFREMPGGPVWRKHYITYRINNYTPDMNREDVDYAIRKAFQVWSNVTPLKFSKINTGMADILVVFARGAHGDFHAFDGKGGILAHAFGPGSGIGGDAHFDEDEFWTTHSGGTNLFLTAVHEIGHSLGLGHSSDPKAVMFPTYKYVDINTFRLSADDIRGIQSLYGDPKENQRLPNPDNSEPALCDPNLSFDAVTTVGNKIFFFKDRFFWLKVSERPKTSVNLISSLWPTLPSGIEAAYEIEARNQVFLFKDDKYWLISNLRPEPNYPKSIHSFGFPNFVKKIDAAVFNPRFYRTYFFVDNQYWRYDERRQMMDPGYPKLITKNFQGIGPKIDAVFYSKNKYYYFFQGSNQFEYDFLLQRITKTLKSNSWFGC
Description: Inhibition of human recombinant MMP12 by colorimetric analysis

Neutrophil collagenase = Neutrophil collagenase (Homo sapiens, UniProt P22894)
Sequence of Neutrophil collagenase (P22894 whole entry): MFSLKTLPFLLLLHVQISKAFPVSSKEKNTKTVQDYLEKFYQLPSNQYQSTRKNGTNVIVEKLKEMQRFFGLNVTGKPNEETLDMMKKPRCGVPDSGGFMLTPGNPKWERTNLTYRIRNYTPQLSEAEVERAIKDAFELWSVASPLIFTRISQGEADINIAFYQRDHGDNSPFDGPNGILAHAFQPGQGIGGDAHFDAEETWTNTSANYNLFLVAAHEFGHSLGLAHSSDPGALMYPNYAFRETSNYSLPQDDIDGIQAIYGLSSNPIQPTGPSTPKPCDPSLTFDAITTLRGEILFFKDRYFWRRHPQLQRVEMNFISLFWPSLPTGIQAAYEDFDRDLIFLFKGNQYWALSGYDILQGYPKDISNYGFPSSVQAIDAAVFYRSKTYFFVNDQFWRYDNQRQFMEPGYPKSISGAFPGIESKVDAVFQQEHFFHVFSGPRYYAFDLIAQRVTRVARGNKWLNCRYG
Description: Inhibition of human recombinant MMP8 by colorimetric analysis

[3] = molecular target: Matrix metalloproteinase-14 (Homo sapiens, UniProt P50281)
Description: Inhibition of human recombinant MMP14 by colorimetric analysis

A549 [4] = test: cells; format: functional; conditions: Homo sapiens, A549, 48 h
Description: Cytotoxicity against human A549 cells assessed as cell viability at 300 uM after 48 hrs by MTT assay

A549 [5] = test: cells; format: functional; conditions: Homo sapiens, A549, 48 h; remark: listed apart in the source
Description: Cytotoxicity against human A549 cells assessed as cell viability at 100 uM after 48 hrs by MTT assay

A549 [6] = test: cells; format: functional; conditions: Homo sapiens, A549, 24 h
Description: Reduction of MMP2 expression in human A549 cells at 50 uM after 24 hrs by confocal microsocopy

A549 [7] = test: cells; format: functional, cell-based; conditions: Homo sapiens, A549, 48 h
Description: Cytotoxicity against human A549 cells assessed as cell viability after 48 hrs by MTT assay

A549 [8] = test: cells; format: functional; conditions: Homo sapiens, A549, 48 h; remark: listed apart in the source
A549 [9] = test: cells; format: functional; conditions: Homo sapiens, A549, 48 h; remark: listed apart in the source

Sequence of Matrix metalloproteinase-9 (P14780 whole entry): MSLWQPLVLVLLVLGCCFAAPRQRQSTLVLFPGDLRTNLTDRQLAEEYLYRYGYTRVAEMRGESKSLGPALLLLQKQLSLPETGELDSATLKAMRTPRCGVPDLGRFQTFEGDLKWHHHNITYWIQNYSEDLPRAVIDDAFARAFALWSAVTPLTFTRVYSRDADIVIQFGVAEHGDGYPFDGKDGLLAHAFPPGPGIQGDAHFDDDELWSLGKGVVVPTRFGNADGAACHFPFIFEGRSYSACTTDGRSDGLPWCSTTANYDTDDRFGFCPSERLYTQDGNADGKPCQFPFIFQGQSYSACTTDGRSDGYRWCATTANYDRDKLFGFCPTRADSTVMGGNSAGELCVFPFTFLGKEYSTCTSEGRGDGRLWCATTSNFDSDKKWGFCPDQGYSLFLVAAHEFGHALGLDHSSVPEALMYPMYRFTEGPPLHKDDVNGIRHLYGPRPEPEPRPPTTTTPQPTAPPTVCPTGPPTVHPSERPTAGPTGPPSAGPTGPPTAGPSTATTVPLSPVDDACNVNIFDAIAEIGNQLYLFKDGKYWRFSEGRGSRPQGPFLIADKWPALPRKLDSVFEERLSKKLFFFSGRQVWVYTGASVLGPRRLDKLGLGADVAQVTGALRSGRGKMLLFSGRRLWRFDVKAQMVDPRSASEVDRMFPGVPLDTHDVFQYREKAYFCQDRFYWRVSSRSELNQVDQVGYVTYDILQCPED

pIC50 [1] | pIC50 (Interstitial collagenase) | pIC50 [2] | pIC50 (Neutrophil collagenase) | pIC50 [3] | pIC50 (A549 [7]) | SMILES | viability at 300 µM (A549 [4]) | viability at 100 µM (A549 [5]) | inhibition at 50 µM (A549 [6]) | viability at 100 µM (A549 [8]) | viability at 200 µM (A549 [9])
5.74 | – | – | – | – | – | COc1ccc(CNC(=O)CC[C@H](NS(=O)(=O)c2ccc(-c3ccccc3)cc2)C(=O)O)cc1 | – | – | – | – | –
5.13 | – | – | – | – | – | CC(C)NC(=O)CC[C@H](NS(=O)(=O)c1ccc(-c2ccccc2)cc1)C(=O)O | – | – | – | – | –
5.94 | < 5.00 | 7.08 | 7.33 | 5.27 | – | O=C(CC[C@H](NS(=O)(=O)c1ccc(-c2ccccc2)cc1)C(=O)O)NCc1ccc(F)cc1 | 85% | 80% | – | – | –
5.09 | < 5.00 | 6.61 | 6.65 | 5.06 | – | CC(C)CNC(=O)CC[C@H](NS(=O)(=O)c1ccc(-c2ccccc2)cc1)C(=O)O | 79% | 80% | – | – | –
5.13 | – | – | – | – | – | NC(=O)CC[C@H](NS(=O)(=O)c1ccc(-c2ccccc2)cc1)C(=O)O | – | – | – | – | –
5.68 | – | – | – | – | – | O=C(CC[C@H](NS(=O)(=O)c1ccc(-c2ccccc2)cc1)C(=O)O)NCc1ccc(Cl)cc1 | – | – | – | – | –
5.26 | – | – | – | – | – | CCCCCNC(=O)CC[C@H](NS(=O)(=O)c1ccc(-c2ccc(Br)cc2)cc1)C(=O)O | – | – | – | – | –
5.17 | < 5.00 | 6.34 | 6.64 | 5.20 | 3.57 | O=C(CC[C@H](NS(=O)(=O)c1ccc(-c2ccccc2)cc1)C(=O)O)NCc1cc(C(F)(F)F)cc(C(F)(F)F)c1 | 43% | 80% | ≤ 78.9% | 98.5% | 96.1%
6.06 | < 5.00 | 7.20 | 7.41 | 5.79 | – | O=C(CC[C@H](NS(=O)(=O)c1ccc(-c2ccccc2)cc1)C(=O)O)NCc1ccccc1Cl | 68% | 80% | – | – | –
6.31 | < 5.00 | 7.27 | 7.67 | 6.37 | – | O=C(CC[C@H](NS(=O)(=O)c1ccc(-c2ccccc2)cc1)C(=O)O)NCc1ccccc1 | 66% | 80% | ≤ 60.5% | 98.3% | 95.8%
5.37 | < 5.00 | 6.53 | 7.25 | 5.86 | – | O=C(CC[C@H](NS(=O)(=O)c1ccc(-c2ccccc2)cc1)C(=O)O)Nc1ccccc1 | 78% | 80% | – | – | –
4.42 | – | – | – | – | – | CNC(=O)CC[C@H](NS(=O)(=O)c1ccc(-c2ccccc2)cc1)C(=O)O | – | – | – | – | –
4.95 | < 5.00 | – | 7.34 | 5.11 | – | CCCNC(=O)CC[C@H](NS(=O)(=O)c1ccc(-c2ccccc2)cc1)C(=O)O | – | – | – | – | –
5.06 | – | – | – | – | – | CCNC(=O)CC[C@H](NS(=O)(=O)c1ccc(-c2ccccc2)cc1)C(=O)O | – | – | – | – | –
6.15 | < 5.00 | 7.15 | 7.22 | 5.33 | – | CCCCNC(=O)CC[C@H](NS(=O)(=O)c1ccc(-c2ccccc2)cc1)C(=O)O | 59% | 80% | – | – | –
6.20 | < 5.00 | 7.14 | 7.19 | 5.62 | – | O=C(CC[C@H](NS(=O)(=O)c1ccc(-c2ccccc2)cc1)C(=O)O)NC1CCCCC1 | 70% | 80% | – | – | –
5.24 | < 5.00 | 7.28 | 7.23 | 6.00 | – | CCCCCNC(=O)CC[C@H](NS(=O)(=O)c1ccc(-c2ccccc2)cc1)C(=O)O | 61% | 80% | ≤ 52.1% | – | –
5.07 | – | – | – | – | – | CC(C)(C)NC(=O)CC[C@H](NS(=O)(=O)c1ccc(-c2ccccc2)cc1)C(=O)O | – | – | – | – | –
5.23 | < 5.00 | 7.02 | 7.09 | 6.09 | – | CCCCCCNC(=O)CC[C@H](NS(=O)(=O)c1ccc(-c2ccccc2)cc1)C(=O)O | 65% | 80% | – | – | –
5.15 | < 5.00 | 6.53 | 6.98 | 5.16 | – | O=C(CC[C@H](NS(=O)(=O)c1ccc(-c2ccccc2)cc1)C(=O)O)NCCc1ccccc1 | – | – | – | – | –
5.22 | – | – | – | – | – | O=C(CC[C@H](NS(=O)(=O)c1ccc(-c2ccc(Br)cc2)cc1)C(=O)O)NCc1ccccc1 | – | – | – | – | –
